PubChem BioAssay (NCI)
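48-hour exposure; five concentrations; linearly interpolated endpoints. At the TGI there is no net growth.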

These compounds were tested on SK-MEL-5 melanoma (assay: NCI tumour cell line growth inhibition, 48 h).

Row | SMILES | TGI [µM]
1 | NCCCCCCn1c(-c2ccc(Br)cc2)csc1=Nc1ccccc1 | 21.7
2 | CCc1c(-c2ccc(OC)cc2)c(=O)oc2cc(O)ccc12 | 33.8
3 | COc1ccc2c(c1)[C@@H]1c3cc(OC)c(OC)cc3CCN1CCC2 | > 100
4 | CCN(CC)CCn1ncc2c3c(=O)c4cccnc4n(CCN(CC)CC)c3ccc21 | > 10
5 | COC(=O)[C@@H]1C[C@@]23CCCN4CC[C@@]5(c6cccc(OC)c6N(C=O)[C@]15CC2)[C@@H]43 | > 100

Each compound was assayed on NCI-H460 lung (assay: NCI tumour cell line growth inhibition, 48 h).

Row | SMILES | TGI [µM]
6 | NCCCCCCn1c(-c2ccc(Br)cc2)csc1=Nc1ccccc1 | 27.1
7 | CCc1c(-c2ccc(OC)cc2)c(=O)oc2cc(O)ccc12 | > 100
8 | COc1ccc2c(c1)[C@@H]1c3cc(OC)c(OC)cc3CCN1CCC2 | > 100
9 | CCN(CC)CCn1ncc2c3c(=O)c4cccnc4n(CCN(CC)CC)c3ccc21 | > 10
10 | COC(=O)[C@@H]1C[C@@]23CCCN4CC[C@@]5(c6cccc(OC)c6N(C=O)[C@]15CC2)[C@@H]43 | > 100

These compounds were tested on SNB-75 CNS (assay: NCI tumour cell line growth inhibition, 48 h).

Row | SMILES | TGI [µM]
11 | NCCCCCCn1c(-c2ccc(Br)cc2)csc1=Nc1ccccc1 | 24.2
12 | CCc1c(-c2ccc(OC)cc2)c(=O)oc2cc(O)ccc12 | > 100
13 | COc1ccc2c(c1)[C@@H]1c3cc(OC)c(OC)cc3CCN1CCC2 | > 100
14 | CCN(CC)CCn1ncc2c3c(=O)c4cccnc4n(CCN(CC)CC)c3ccc21 | > 10
15 | COC(=O)[C@@H]1C[C@@]23CCCN4CC[C@@]5(c6cccc(OC)c6N(C=O)[C@]15CC2)[C@@H]43 | > 100

The compounds below were run on SNB-19 CNS (assay: NCI tumour cell line growth inhibition, 48 h).

Row | SMILES | TGI [µM]
16 | NCCCCCCn1c(-c2ccc(Br)cc2)csc1=Nc1ccccc1 | 29
17 | CCc1c(-c2ccc(OC)cc2)c(=O)oc2cc(O)ccc12 | > 100
18 | COc1ccc2c(c1)[C@@H]1c3cc(OC)c(OC)cc3CCN1CCC2 | > 100
19 | CCN(CC)CCn1ncc2c3c(=O)c4cccnc4n(CCN(CC)CC)c3ccc21 | > 10
20 | COC(=O)[C@@H]1C[C@@]23CCCN4CC[C@@]5(c6cccc(OC)c6N(C=O)[C@]15CC2)[C@@H]43 | > 100

What follows are compounds tested on EKVX NSCLC (assay: NCI tumour cell line growth inhibition, 48 h).

Row | SMILES | TGI [µM]
21 | NCCCCCCn1c(-c2ccc(Br)cc2)csc1=Nc1ccccc1 | 26.7
22 | CCc1c(-c2ccc(OC)cc2)c(=O)oc2cc(O)ccc12 | > 100
23 | COc1ccc2c(c1)[C@@H]1c3cc(OC)c(OC)cc3CCN1CCC2 | > 100
24 | CCN(CC)CCn1ncc2c3c(=O)c4cccnc4n(CCN(CC)CC)c3ccc21 | > 10
25 | COC(=O)[C@@H]1C[C@@]23CCCN4CC[C@@]5(c6cccc(OC)c6N(C=O)[C@]15CC2)[C@@H]43 | > 100

These compounds were tested on SK-MEL-2 melanoma (assay: NCI tumour cell line growth inhibition, 48 h).

Row | SMILES | TGI [µM]
26 | NCCCCCCn1c(-c2ccc(Br)cc2)csc1=Nc1ccccc1 | 33.4
27 | CCc1c(-c2ccc(OC)cc2)c(=O)oc2cc(O)ccc12 | > 100
28 | COc1ccc2c(c1)[C@@H]1c3cc(OC)c(OC)cc3CCN1CCC2 | > 100
29 | CCN(CC)CCn1ncc2c3c(=O)c4cccnc4n(CCN(CC)CC)c3ccc21 | > 10
30 | COC(=O)[C@@H]1C[C@@]23CCCN4CC[C@@]5(c6cccc(OC)c6N(C=O)[C@]15CC2)[C@@H]43 | > 100

The compounds below were run on MOLT-4 leukemia (assay: NCI tumour cell line growth inhibition, 48 h).

Row | SMILES | TGI [µM]
31 | NCCCCCCn1c(-c2ccc(Br)cc2)csc1=Nc1ccccc1 | 14.8
32 | CCc1c(-c2ccc(OC)cc2)c(=O)oc2cc(O)ccc12 | 57.9
33 | COc1ccc2c(c1)[C@@H]1c3cc(OC)c(OC)cc3CCN1CCC2 | > 100
34 | CCN(CC)CCn1ncc2c3c(=O)c4cccnc4n(CCN(CC)CC)c3ccc21 | > 10
35 | COC(=O)[C@@H]1C[C@@]23CCCN4CC[C@@]5(c6cccc(OC)c6N(C=O)[C@]15CC2)[C@@H]43 | > 100

Each compound was assayed on COLO 205 colon (assay: NCI tumour cell line growth inhibition, 48 h).

Row | SMILES | TGI [µM]
36 | NCCCCCCn1c(-c2ccc(Br)cc2)csc1=Nc1ccccc1 | 3.18
37 | CCc1c(-c2ccc(OC)cc2)c(=O)oc2cc(O)ccc12 | 97.1
38 | COc1ccc2c(c1)[C@@H]1c3cc(OC)c(OC)cc3CCN1CCC2 | > 100
39 | CCN(CC)CCn1ncc2c3c(=O)c4cccnc4n(CCN(CC)CC)c3ccc21 | 6.67
40 | COC(=O)[C@@H]1C[C@@]23CCCN4CC[C@@]5(c6cccc(OC)c6N(C=O)[C@]15CC2)[C@@H]43 | > 100

Each compound was assayed on NCI-H522 lung (assay: NCI tumour cell line growth inhibition, 48 h).

Row | SMILES | TGI [µM]
41 | NCCCCCCn1c(-c2ccc(Br)cc2)csc1=Nc1ccccc1 | 24
42 | CCc1c(-c2ccc(OC)cc2)c(=O)oc2cc(O)ccc12 | > 100
43 | COc1ccc2c(c1)[C@@H]1c3cc(OC)c(OC)cc3CCN1CCC2 | > 100
44 | CCN(CC)CCn1ncc2c3c(=O)c4cccnc4n(CCN(CC)CC)c3ccc21 | > 10
45 | COC(=O)[C@@H]1C[C@@]23CCCN4CC[C@@]5(c6cccc(OC)c6N(C=O)[C@]15CC2)[C@@H]43 | > 100

The compounds below were run on MDA-MB-435 (assay: NCI tumour cell line growth inhibition, 48 h).

Row | SMILES | TGI [µM]
46 | NCCCCCCn1c(-c2ccc(Br)cc2)csc1=Nc1ccccc1 | 22.6
47 | CCc1c(-c2ccc(OC)cc2)c(=O)oc2cc(O)ccc12 | > 100
48 | COc1ccc2c(c1)[C@@H]1c3cc(OC)c(OC)cc3CCN1CCC2 | > 100
49 | CCN(CC)CCn1ncc2c3c(=O)c4cccnc4n(CCN(CC)CC)c3ccc21 | > 10
50 | COC(=O)[C@@H]1C[C@@]23CCCN4CC[C@@]5(c6cccc(OC)c6N(C=O)[C@]15CC2)[C@@H]43 | > 100

The compounds below were run on HT29 colon (assay: NCI tumour cell line growth inhibition, 48 h).

Row | SMILES | TGI [µM]
51 | NCCCCCCn1c(-c2ccc(Br)cc2)csc1=Nc1ccccc1 | 19.9
52 | CCc1c(-c2ccc(OC)cc2)c(=O)oc2cc(O)ccc12 | > 100
53 | COc1ccc2c(c1)[C@@H]1c3cc(OC)c(OC)cc3CCN1CCC2 | > 100
54 | CCN(CC)CCn1ncc2c3c(=O)c4cccnc4n(CCN(CC)CC)c3ccc21 | > 10
55 | COC(=O)[C@@H]1C[C@@]23CCCN4CC[C@@]5(c6cccc(OC)c6N(C=O)[C@]15CC2)[C@@H]43 | > 100

These compounds were tested on SW-620 colon (assay: NCI tumour cell line growth inhibition, 48 h).

Row | SMILES | TGI [µM]
56 | NCCCCCCn1c(-c2ccc(Br)cc2)csc1=Nc1ccccc1 | 17.6
57 | CCc1c(-c2ccc(OC)cc2)c(=O)oc2cc(O)ccc12 | > 100
58 | COc1ccc2c(c1)[C@@H]1c3cc(OC)c(OC)cc3CCN1CCC2 | > 100
59 | CCN(CC)CCn1ncc2c3c(=O)c4cccnc4n(CCN(CC)CC)c3ccc21 | > 10
60 | COC(=O)[C@@H]1C[C@@]23CCCN4CC[C@@]5(c6cccc(OC)c6N(C=O)[C@]15CC2)[C@@H]43 | > 100

What follows are compounds tested on HCC-2998 colon (assay: NCI tumour cell line growth inhibition, 48 h).

Row | SMILES | TGI [µM]
61 | NCCCCCCn1c(-c2ccc(Br)cc2)csc1=Nc1ccccc1 | 12.8
62 | CCc1c(-c2ccc(OC)cc2)c(=O)oc2cc(O)ccc12 | > 100
63 | COc1ccc2c(c1)[C@@H]1c3cc(OC)c(OC)cc3CCN1CCC2 | > 100
64 | CCN(CC)CCn1ncc2c3c(=O)c4cccnc4n(CCN(CC)CC)c3ccc21 | > 10
65 | COC(=O)[C@@H]1C[C@@]23CCCN4CC[C@@]5(c6cccc(OC)c6N(C=O)[C@]15CC2)[C@@H]43 | > 100

These compounds were tested on SF-295 CNS (assay: NCI tumour cell line growth inhibition, 48 h).

Row | SMILES | TGI [µM]
66 | NCCCCCCn1c(-c2ccc(Br)cc2)csc1=Nc1ccccc1 | 29.5
67 | CCc1c(-c2ccc(OC)cc2)c(=O)oc2cc(O)ccc12 | > 100
68 | COc1ccc2c(c1)[C@@H]1c3cc(OC)c(OC)cc3CCN1CCC2 | > 100
69 | CCN(CC)CCn1ncc2c3c(=O)c4cccnc4n(CCN(CC)CC)c3ccc21 | > 10
70 | COC(=O)[C@@H]1C[C@@]23CCCN4CC[C@@]5(c6cccc(OC)c6N(C=O)[C@]15CC2)[C@@H]43 | > 100

Each compound was assayed on CAKI-1 renal (assay: NCI tumour cell line growth inhibition, 48 h).

Row | SMILES | TGI [µM]
71 | NCCCCCCn1c(-c2ccc(Br)cc2)csc1=Nc1ccccc1 | 28.3
